Test results reported in PMC12434670 (Journal of Medicinal Chemistry, 2025).
Like-named read-outs stand apart in the source and are kept apart here.

Tested on: Virg09 virus clones with HA mutations
Assay type: cell-based, influenza A virus
[1] = read-out: Antiviral EC50 by MTS assay, mutant A81/82_1V
[2] = read-out: Antiviral EC50 by MTS assay, mutant D90_2G
[3] = read-out: Antiviral EC50 by MTS assay, mutant F118_1L
[4] = read-out: Antiviral EC50 by MTS assay, mutant S54_2P
[5] = read-out: Antiviral EC50 by MTS assay, mutant T301_1I
[6] = read-out: EC50 against all virus clones selected under VF-57a or RL-007

Which “Activity against all viruses tested (in words)” value does the source give for `O=C1c2c(O)c(=O)ccn2N([C@@H]2c3ccccc3SCc3c2ccc(F)c3F)[C@@H]2COCCN12` [BXA, baloxavir acid] here?
The value was “equally active”.

What about the EC50 [1] of the same compound?
The EC50 was 0.003 ± 0.0007 µM.

What about the EC50 [2] of the same compound?
Its EC50 is 0.0017 ± 0.0002 µM.

What about the EC50 [3] of the same compound?
Its EC50 is 0.0025 ± 0.0005 µM.

What about the EC50 [4] of the same compound?
Its EC50 is 0.0017 ± 0.0008 µM.

And the EC50 [5]?
The EC50 was 0.0019 ± 0.0001 µM.

Which results are given for `Cc1cc(CNC(=O)c2cc(Cl)cc(C(F)(F)F)c2)c(C)s1` [Compound 23, 3-Chloro-N-[(2,5-dimethylthiophen-3-yl)methyl]-5-(trifluoromethyl)benzamide]?
EC50 [1]: > 40 µM; EC50 [2]: > 40 µM; EC50 [3]: > 40 µM; EC50 [4]: > 40 µM; EC50 [5]: > 40 µM; EC50 [6]: > 40 µM

What does the source list for `CC(C)c1ccccc1NCCN1CCCCC1` [RL-007, reference compound]?
EC50 [1]: > 40 µM; EC50 [2]: > 40 µM; EC50 [3]: > 40 µM; EC50 [4]: > 40 µM; EC50 [5]: > 40 µM; EC50 [6]: > 40 µM
